* marks the point of attachment. C16 alkyl = CCCCCCCCCCCCCCCC*
What was measured:
[1] = system: Rat Bladder Augmentation Model; assay: Bladder stone formation in regenerating bladders; format: in vivo; details: for Bladder Stone Formation (shown as percentage of animals forming stones): 5 weeks post-augmentation; for size of bladder stones formed, in words: rat, in vivo
Source text: Bladder stone formation can be caused by a myriad of factors including those based upon diet as well as genetic makeup and underlying bladder conditions (refs. 57,58; herein incorporated by reference in its entirety).
(§1) Athymic female rats (weighing ˜200 g and 8-10 weeks old; National Cancer Institute Animal Production Program) underwent bladder augmentation (ref. 15; herein incorporated by reference in its entirety). Athymic rats were chosen for this study to solely examine the innate immune response to inflammation without influence of the adaptive immune response. In order to induce anesthesia, animals were given intraperitoneal injections of 60 mg/kg ketamine and 5 mg/kg xylazine. A second injection consisting of Buprenex (1 mg/kg) was administered subcutaneously to alleviate any pain/discomfort during and following surgical procedures. An approximate 1.5 cm midline vertical skin incision was created to expose the abdominal fascia and muscles. This was immediately followed by the separation of the wall leading to the identification of the bladder. An approximate 70% supratrigonal cystectomy was performed from anterior to posterior creating a clamshell. Immediately prior to bladder augmentation procedures, samples of the pro-inflammatory biological scaffold, small intestinal submucosa (SIS (0.5×0.5 cm); Cook Biotech.) (refs. 12,13,16; herein incorporated by reference in their entireties) were thoroughly dip-coated separately in one of the previously described AIF-PAs following gelation procedures. The sections of SIS were dip-coated for approximately 20 seconds and allowed to adhere to the SIS for an additional 30 seconds. Dip-coating procedures were performed at room temperature in air. The cystectomized bladder defect was then augmented with: 1) SIS (non-AIF-PA coated SIS; n=8 animals over both time-points); 2) AIF-PA1 coated SIS (denoted as SIS/AIF-PA1; n=11 animals over both time-points); 3) AIF-PA2 coated SIS (denoted as SIS/AIF-PA2; n=8 animals over both time-points); 4) AIF-PA3 coated SIS (denoted as SIS/AIF-PA3; n=3); 5) AIF-PA4 coated SIS (denoted as SIS/AIF-PA4; n=3 animals); 6) AIF-PA5 coated SIS (denoted as SIS/AIF-PA5; n=3 animals); and 7) AIFC-PA6 coated SIS (denoted as SIS/AIFC-PA6; n=9 animals over both time-points). The bladder was finally covered with omentum after being closed in a watertight manner utilizing 7-0 polyglactin suture. The abdominal wall was then closed in a single layer with 5-0 ethibond running suture and the skin re-approximated with 9 mm autoclips. Each group was sacrificed at 10 day and 5 week time-points.

TNFα = TNFα expression in regenerated bladder tissue (immunofluorescence); format: in vivo, rat; details: for Cytokine expression (shown as percentage of cells staining positive) Pro-inflammatory TNFα: 5 weeks post-augmentation, means ± SE; for percentage of cells staining positive for TNFα: 10 days post-augmentation
Procedure: as §1
Tissue sections comprised of SIS alone, SIS/AIF-PA1, SIS/AIF-PA2, and SIS/AIF-PA6 augmentations were subjected to immunofluorescence staining by initially undergoing antigen retrieval which consisted of 15 min of boiling in citrate buffer (0.01M citrate solution, pH 6.0 with 0.05% Tween-20) followed by cooling at room temperature for approximately 20 minutes. The antibody staining process consisted of a blocking step for 15 min in bovine serum albumin (BSA, 5 mg/ml) followed by a 40 minutes incubation at room temperature with the primary antibody. After washing with DPBS, slides were incubated for 30 min with a secondary antibody and eventually rinsed with DPBS and air dried. Slides were mounted with Vectashield (Vector Laboratories). Primary antibodies were directed against epitopes for the inflammatory markers CD68 (macrophage) (refs. 18,19; herein incorporated by reference in their entireties) MPO (neutrophil) (ref. 20; herein incorporated by reference in its entirety) or the inflammation-related proteins IL1β, TNFα, IL-10, IL-13, CD206 (M2 macrophage) (refs. 21-25; herein incorporated by reference in their entireties) and CD86 (M1 macrophage) (ref. 26; herein incorporated by reference in its entirety). Antibodies directed against the ECM in regenerating bladder tissue (including COL4A3 and fibronectin) were also utilized. Alexa Red 555 or FITC conjugated secondary antibodies (Molecular Probes) were utilized for visualization (ref. 15; herein incorporated by reference in its entirety). […]

[2] = system: Rat Bladder Augmentation Model; assay: Granuloma quantification (CD68 immunofluorescence) in augmented bladder tissue; format: in vivo
Source text: Granulation tissue is composed of several extracellular matrices such as collagen and a variety of immune cell types including lymphocytes, neutrophils, and especially macrophages (refs. 54-56; herein incorporated by reference in their entireties). Extravesical granulomas were found in regenerating bladder muscle and submucosa but not in the epithelial layer (urothelium) that lines the interior of the bladder wall. […] Granulation tissue was identified by a trained Pathologist (M.D.H.) utilizing immunofluorescence imaging with the macrophage marker CD68 (green). […] Images are representative examples of multiple stained tissue samples. See Table 1 for granuloma quantification. Magnification 100× (Scale bar, 200 μm).
as §1
Tissue sections comprised of SIS alone, SIS/AIF-PA1, SIS/AIF-PA2, and SIS/AIF-PA6 augmentations were subjected to immunofluorescence staining by initially undergoing antigen retrieval which consisted of 15 min of boiling in citrate buffer (0.01M citrate solution, pH 6.0 with 0.05% Tween-20) followed by cooling at room temperature for approximately 20 minutes. The antibody staining process consisted of a blocking step for 15 min in bovine serum albumin (BSA, 5 mg/ml) followed by a 40 minutes incubation at room temperature with the primary antibody. After washing with DPBS, slides were incubated for 30 min with a secondary antibody and eventually rinsed with DPBS and air dried. Slides were mounted with Vectashield (Vector Laboratories). […]

Row | Substance | Bladder Stone Formation (shown as percentage of animals forming stones) [1] [percentage] | size of bladder stones formed, in words [1] | Cytokine expression (shown as percentage of cells staining positive) Pro-inflammatory TNFα (TNFα) [percentage] | percentage of cells staining positive for TNFα (TNFα) [%] | Maximum Granuloma Size ([2]; 5W post-augmentation) | Mean Granuloma Size ([2]; 5W post-augmentation) | Minimum Granuloma Size ([2]; 5W post-augmentation) | Number of Granulomas ([2]; 5W post-augmentation) | Number of Large Granulomas (>0.01 mm^2) ([2]; 5W post-augmentation) | granuloma formation, in words ([2]; 5W samples) | Maximum Granuloma Size ([2]; 10D post-augmentation) | Mean Granuloma Size ([2]; 10D post-augmentation) | Minimum Granuloma Size ([2]; 10D post-augmentation) | Number of Granulomas ([2]; 10D post-augmentation) | Number of Large Granulomas (>0.01 mm^2) ([2]; 10D post-augmentation) | granuloma formation, in words ([2]; 10 day samples)
1 | C16-VVVAAAEEEKLMSQKMVD (SEQ ID NO:6) ({C16 alkyl}-VVVAAAEEEKLMSQKMVD-NH2) [SIS/AIFC-PA6, reference compound] | 42.9 | quite large in size | 42.8 ± 2.2 | 65.1±5.1 | 14.80 ± 2.30 10^-3 mm^2 | 6.10 ± 0.51 10^-3 mm^2 | 2.21 ± 0.30 10^-3 mm^2 | 7.00 ± 1.08 | 1.00 ± 0.41 | accumulation of granulomas | 110.89 ± 1.51 10^-3 mm^2 | 29.64 ± 0.74 10^-3 mm^2 | 6.12 ± 0.01 10^-3 mm^2 | 10.00 ± 1.00 | 6.00 ± 1.00 | large granuloma formation
2 | C16-VVVAAAEEEMQMKKVLDS (SEQ ID NO:1) ({C16 alkyl}-VVVAAAEEEMQMKKVLDS-NH2) [SIS/AIF-PA1, anti-inflammatory peptide amphiphile, tested dip-coated on small intestinal submucosa (SIS) scaffold] | 25.0 | a fraction of the size found in control animals | 17.4 ± 2.9 | 32.8±2.5 | 1.62 ± 1.15 10^-3 mm^2 | 1.26 ± 0.68 10^-3 mm^2 | 0.97 ± 0.65 10^-3 mm^2 | 1.75 ± 1.03 | 0 | diminished | 23.39 ± 7.66 10^-3 mm^2 | 8.77 ± 1.32 10^-3 mm^2 | 2.67 ± 0.15 10^-3 mm^2 | 4.00 ± 1.00 | 1.33 ± 0.33 | lesser degree of granuloma formation in size and frequency
3 | C16-VVVAAAEEEHDMNKVLDL (SEQ ID NO:2) ({C16 alkyl}-VVVAAAEEEHDMNKVLDL-NH2) [SIS/AIF-PA2, anti-inflammatory peptide amphiphile, tested dip-coated on small intestinal submucosa (SIS) scaffold] | 16.7 | a fraction of the size found in control animals | 14.6 ± 1.7 | 26.3±2.5 | 4.08 ± 0.38 10^-3 mm^2 | 3.00 ± 0.20 10^-3 mm^2 | 2.09 ± 0.39 10^-3 mm^2 | 3.00 ± 1.00 | 0 | diminished | 11.99 ± 3.62 10^-3 mm^2 | 5.95 ± 1.16 10^-3 mm^2 | 2.65 ± 0.17 10^-3 mm^2 | 4.00 ± 1.00 | 0.67 ± 0.33 | lesser degree of granuloma formation in size and frequency
